# Data: patent US7754243B2, “Aqueous suspension of nanoscale drug particles from supercritical fluid processing” (Clemson University Research Foundation, priority 2004, dated 2010)
# Tests used:
# [1] = Statistical analysis of SEM images of nanoparticles in the product aqueous suspension; format: physicochemical; settings: for average nanoparticle size: Ibuprofen
# Protocol: A system similar to that illustrated in FIG. 1 was utilized to form aqueous suspensions of Ibuprofen particles. Specifically, a solution (0.25 mg/mL) of Ibuprofen (available from Sigma-Aldrich Corporation) in liquid carbon dioxide (high-purity, SFC grade obtained from Air Products Corporation) was prepared in the syringe pump 10. The solution was pushed through the heating unit 14 to reach the desired supercritical temperature of 40° C. before reaching the expansion nozzle 16. The rapid expansion was carried out at a pre-expansion pressure of 200 bar through a 50 μm orifice into an aqueous solution. A specimen of the product suspension was prepared for SEM imaging by depositing a few drops of the dilute nanoparticle aqueous suspension onto a carbon tape, followed by drying under ambient condition and then coating with platinum before imaging. SEM images were obtained on a Hitachi S-4700 Field-Emission SEM system.
# [2] = Stability of the product aqueous suspension against precipitation; format: physicochemical; settings: for time until precipitation appeared in the suspension: receiving solution neat water
# Protocol: A system similar to that illustrated in FIG. 1 was utilized to form aqueous suspensions of Ibuprofen particles. Specifically, a solution (0.25 mg/mL) of Ibuprofen (available from Sigma-Aldrich Corporation) in liquid carbon dioxide (high-purity, SFC grade obtained from Air Products Corporation) was prepared in the syringe pump 10. The solution was pushed through the heating unit 14 to reach the desired supercritical temperature of 40° C. before reaching the expansion nozzle 16. The rapid expansion was carried out at a pre-expansion pressure of 200 bar through a 50 μm orifice into an aqueous solution. FIG. 2A is an SEM analysis of the precipitate obtained when the receiving solution in the expansion chamber 18 was neat water.
Structure (SMILES),"average size in diameter ([1]; Naproxen nanoparticles, 2 wt % methanol co-solvent, receiving solution 0.5 mg/mL PVP (Mw≈40,000)) [nm]",time until precipitation appeared in the suspension [2] [min],"change in nanoparticle size on increase of drug loading and PVP concentration ([1]; Ibuprofen loading 0.25 to 0.83 mg/mL, PVP concentration 0.5 to 3.3 mg/mL)","average size in diameter ([1]; Ibuprofen nanoparticles, receiving solution aqueous PVP (Mw≈40,000), pre-expansion 40° C., 200 bar) [nm]","average size in diameter ([1]; Ibuprofen nanoparticles, receiving solution aqueous SDS, 3.3 mg/mL) [nm]","average nanoparticle size ([1]; PVP receiving solution, pre-expansion temperature 120° C.) [nm]","average nanoparticle size ([1]; high-molecular weight PVP (Mw≈360,000)) [nm]","change in average particle size on variation of drug/polymer weight ratio ([1]; PVP, drug/polymer weight ratio varied from 0.3 to 4 (Ibuprofen) or 0.3 to 2 (Naproxen))","stability of product suspension ([2]; receiving solution aqueous PVP (Mw≈40,000))","stability of product suspension ([2]; receiving solution aqueous SDS, 3.3 mg/mL)"
COc1ccc2cc([C@H](C)C(=O)O)ccc2c1 [Naproxen],64,≤ 15,–,–,–,–,–,–,–,–
CC(C)Cc1ccc(C(C)C(=O)O)cc1 (centres unmarked) [Ibuprofen],–,≤ 15,no significant changes,40,25,52,30,no significant changes,no sign of instability after several days,remained stable without precipitation
